Measurements reported in PubChem BioAssay AID1963827 (Molecular Pharmacology Branch, DTP, NCI, 2024).

Test system: 994946-033-R-J1-PDC complex spheroid viability
Assay: Anticancer human tumor 994946-033-R-J1-PDC patient-derived melanoma cell line growth inhibition [POLQ]
Settings: for IC50: curve of first compound; for viability, T/C: stronger effect = lower value
How it was run: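 Three-cell-type spheroids modelling solid tumor plus stroma served as the readout system; POL inhibitors were tested individually and in combination, concentration ranges set by clinical Cmax where known.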

[1] = second compound 0.0316 µM, first compound 0.00316 µM
[2] = second compound 0.0316 µM, first compound 0.01 µM
[3] = second compound 0.0316 µM, first compound 0.0316 µM
[4] = second compound 0.0316 µM, first compound 0.1 µM
[5] = second compound 0.0316 µM, first compound 0.316 µM
[6] = second compound 0.0316 µM, first compound 1 µM
[7] = second compound 0.1 µM, first compound 0.00316 µM
[8] = second compound 0.1 µM, first compound 0.01 µM
[9] = second compound 0.1 µM, first compound 0.0316 µM
[10] = second compound 0.1 µM, first compound 0.1 µM
[11] = second compound 0.1 µM, first compound 0.316 µM
[12] = second compound 0.1 µM, first compound 1 µM
[13] = second compound 0.316 µM, first compound 0.00316 µM
[14] = second compound 0.316 µM, first compound 0.01 µM
[15] = second compound 0.316 µM, first compound 0.0316 µM
[16] = second compound 0.316 µM, first compound 0.1 µM
[17] = second compound 0.316 µM, first compound 0.316 µM
[18] = second compound 0.316 µM, first compound 1 µM
[19] = second compound 1 µM, first compound 0.00316 µM
[20] = second compound 1 µM, first compound 0.01 µM
[21] = second compound 1 µM, first compound 0.0316 µM
[22] = second compound 1 µM, first compound 0.1 µM
[23] = second compound 1 µM, first compound 0.316 µM
[24] = second compound 1 µM, first compound 1 µM
[25] = second compound 3.16 µM, first compound 0.00316 µM
[26] = second compound 3.16 µM, first compound 0.01 µM
[27] = second compound 3.16 µM, first compound 0.0316 µM
[28] = second compound 3.16 µM, first compound 0.1 µM
[29] = second compound 3.16 µM, first compound 0.316 µM
[30] = second compound 3.16 µM, first compound 1 µM
[31] = second compound 10 µM, first compound 0.00316 µM
[32] = second compound 10 µM, first compound 0.01 µM
[33] = second compound 10 µM, first compound 0.0316 µM
[34] = second compound 10 µM, first compound 0.1 µM
[35] = second compound 10 µM, first compound 0.316 µM
[36] = second compound 10 µM, first compound 1 µM
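Note: spheroids exposed to drugs for 7 days.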
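Throughout, for viability, T/C: 100% = DMSO vehicle treated spheroids.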

With CCc1c2c(nc3ccc(O)cc13)-c1cc3c(c(=O)n1C2)COC(=O)[C@]3(O)CC + Nc1ccc(C#CCN(C(=O)Cc2ncc(C(F)(F)F)cc2C(F)(F)F)c2ccc(F)cc2)nn1 the IC50 (second compound 0.0316 µM) was less than 3.16 nM, the IC50 (second compound 0.1 µM) was less than 3.16 nM and the IC50 (second compound 0.316 µM) was less than 3.16 nM. The IC50 (second compound 1 µM) was less than 3.16 nM, the IC50 (second compound 3.16 µM) was less than 3.16 nM and the IC50 (second compound 10 µM) was less than 3.16 nM. It also gave a viability, T/C [1] of 27%, a viability, T/C [2] of 13.4% and a viability, T/C [3] of 8.88%. The viability, T/C [4] was 5.83%, the viability, T/C [5] was 4.85% and the viability, T/C [6] was 1.91%. The viability, T/C [7] was 23.6%, the viability, T/C [8] was 11.1% and the viability, T/C [9] was 7.44%. For the same compound, the viability, T/C [10] was 6.7%, the viability, T/C [11] was 7.41% and the viability, T/C [12] was 2.23%. For the same compound, the viability, T/C [13] was 29.8%, the viability, T/C [14] was 10.9% and the viability, T/C [15] was 8.12%. It also gave a viability, T/C [16] of 7.25%, a viability, T/C [17] of 6.69% and a viability, T/C [18] of 2.59%. It also gave a viability, T/C [19] of 20.8%, a viability, T/C [20] of 12.1% and a viability, T/C [21] of 6.5%. It also gave a viability, T/C [22] of 9.5%, a viability, T/C [23] of 5.03% and a viability, T/C [24] of 2.07%. It also gave a viability, T/C [25] of 26.3%, a viability, T/C [26] of 16.2% and a viability, T/C [27] of 8.04%. For the same compound, the viability, T/C [28] was 6.61%, the viability, T/C [29] was 6.79% and the viability, T/C [30] was 1.91%. The viability, T/C [31] was 28%, the viability, T/C [32] was 14.1% and the viability, T/C [33] was 5.91%. For the same compound, the viability, T/C [34] was 7.41%, the viability, T/C [35] was 8.18% and the viability, T/C [36] was 2.64%.
With C#Cc1c(F)ccc2cc(O)cc(-c3ncc4c(N5CC6CCC(C5)N6)nc(OCC56CCCN5CC(F)C6)nc4c3F)c12 (stereo unspecified) + COC1C(OC(N)=O)C(O)C(Oc2ccc3c(O)c(NC(=O)c4ccc(O)c(CC=C(C)C)c4)c(=O)oc3c2C)OC1(C)C the IC50 (second compound 0.0316 µM) was 5060 nM, the IC50 (second compound 0.1 µM) was 5480 nM and the IC50 (second compound 0.316 µM) was 4010 nM. It also gave an IC50 (second compound 1 µM) of 5890 nM, an IC50 (second compound 3.16 µM) of 4140 nM and an IC50 (second compound 10 µM) of 5330 nM. For the same compound, the viability, T/C [3] was 116%, the viability, T/C [4] was 121% and the viability, T/C [5] was 87.2%. It also gave a viability, T/C [6] of 139%, a viability, T/C (second compound 0.0316 µM, first compound 3.16 µM) of 76.4% and a viability, T/C (second compound 0.0316 µM, first compound 10 µM) of 11.8%. It also gave a viability, T/C [9] of 107%, a viability, T/C [10] of 98.7% and a viability, T/C [11] of 78.8%. The viability, T/C [12] was 110%, the viability, T/C (second compound 0.1 µM, first compound 3.16 µM) was 82.7% and the viability, T/C (second compound 0.1 µM, first compound 10 µM) was 14.3%. It also gave a viability, T/C [15] of 106%, a viability, T/C [16] of 99.7% and a viability, T/C [17] of 96.2%. For the same compound, the viability, T/C [18] was 84.7%, the viability, T/C (second compound 0.316 µM, first compound 3.16 µM) was 61% and the viability, T/C (second compound 0.316 µM, first compound 10 µM) was 10.2%. For the same compound, the viability, T/C [21] was 77.9%, the viability, T/C [22] was 114% and the viability, T/C [23] was 81.7%. The viability, T/C [24] was 71.5%, the viability, T/C (second compound 1 µM, first compound 3.16 µM) was 82.5% and the viability, T/C (second compound 1 µM, first compound 10 µM) was 26.6%. For the same compound, the viability, T/C [27] was 98.2%, the viability, T/C [28] was 92.7% and the viability, T/C [29] was 105%. The viability, T/C [30] was 94.7%, the viability, T/C (second compound 3.16 µM, first compound 3.16 µM) was 62.3% and the viability, T/C (second compound 3.16 µM, first compound 10 µM) was 9.63%. The viability, T/C [33] was 94.8%, the viability, T/C [34] was 93.2% and the viability, T/C [35] was 65.9%. It also gave a viability, T/C [36] of 92%, a viability, T/C (second compound 10 µM, first compound 3.16 µM) of 86.3% and a viability, T/C (second compound 10 µM, first compound 10 µM) of 6.26%.
In the case of C=CCn1c(=O)c2cnc(Nc3ccc(N4CCN(C)CC4)cc3)nc2n1-c1cccc(C(C)(C)O)n1 + Cc1cccc(N(C)C(=O)C2C(O)CCN2c2nc(C)cc(C(F)(F)F)c2C#N)c1, the IC50 (second compound 0.0316 µM) is reported as 625 nM, the IC50 (second compound 0.1 µM) is reported as greater than 1000 nM and the IC50 (second compound 0.316 µM) is reported as 489 nM. For the same compound, the IC50 (second compound 1 µM) was 765 nM, the IC50 (second compound 3.16 µM) was 871 nM and the IC50 (second compound 10 µM) was 915 nM. It also gave a viability, T/C [1] of 94.9%, a viability, T/C [2] of 95.3% and a viability, T/C [3] of 132%. For the same compound, the viability, T/C [4] was 108%, the viability, T/C [5] was 73.3% and the viability, T/C [6] was 33.9%. It also gave a viability, T/C [7] of 66.7%, a viability, T/C [8] of 93.5% and a viability, T/C [9] of 103%. For the same compound, the viability, T/C [10] was 115%, the viability, T/C [11] was 73.5% and the viability, T/C [12] was 52.4%. It also gave a viability, T/C [13] of 80.4%, a viability, T/C [14] of 112% and a viability, T/C [15] of 83.5%. It also gave a viability, T/C [16] of 102%, a viability, T/C [17] of 60% and a viability, T/C [18] of 33.5%. It also gave a viability, T/C [19] of 111%, a viability, T/C [20] of 95.1% and a viability, T/C [21] of 117%. It also gave a viability, T/C [22] of 113%, a viability, T/C [23] of 84.3% and a viability, T/C [24] of 39.6%. For the same compound, the viability, T/C [25] was 116%, the viability, T/C [26] was 118% and the viability, T/C [27] was 111%. It also gave a viability, T/C [28] of 108%, a viability, T/C [29] of 111% and a viability, T/C [30] of 41.7%. The viability, T/C [31] was 123%, the viability, T/C [32] was 73.9% and the viability, T/C [33] was 81.3%. The viability, T/C [34] was 121%, the viability, T/C [35] was 80.5% and the viability, T/C [36] was 47.4%.
